Experimental data taken from patent publication US20060167046A1, “Histamine h3 receptor antagonists, preparation and therapeutic uses” (Eli Lilly and Company Patent Division, priority 2002, published 2006).
pKi: −log10 of the molar value.

Target: T1, H3R membranes (H3R8-expressing HEK293 cell line) (Homo sapiens, UniProt Q9Y5N1)
T1 construct: expressed in transfected cells
Assay: [35S]GTPγS binding assay, H3R membranes in the presence of agonist
Assay type: biochemical
Settings: inhibition of [35S]GTPγS binding to H3R membranes in presence of agonist R(-)alpha methylhistamine; room temperature, pH 7.4
Description: Membranes isolated as described in (Preparation of Histamine Receptor Subtype Membranes) were used in a [^35S]GTPχS functional assay. Binding of [^35S]GTPχS to membranes indicates agonist activity. Compounds of the invention of Formula I were tested for their ability to inhibit binding in the presence of agonists. Alternately, the same transfected cell lines were used for a cAMP assay wherein H3R agonists inhibited forskolin-activated synthesis of cAMP. Compounds of Formula I were tested for their ability to permit forskolin-stimulated cAMP synthesis in the presence of agonist. cDNA for the human histamine 3 receptor was cloned and expressed as described in (A. Preparation H1R membranes), above. Transfected cells were selected using G418 ([…]), grown, and tested for histamine binding by the SPA described above. For total binding, cells were assayed in a SPA reaction described above containing 50 mM Tris-HCL (assay buffer), pH 7.6, 1 mg wheat germ agglutinin SPA beads (Amersham Pharmacia Biotech, #RPNQ0001), and 1 nM (^3H)-n-alpha-methylhistamine (NEN, NET1027) (total volume per well=200 μl). Thioperimide was added to determine non-specific binding. Several clones were selected as positive for binding, and a single clone (H3R8) was used to prepare membranes for binding studies described above. […] Plates were counted in Wallac Trilux 1450 Microbeta scintillation counter for 1 minute. […]

T1 sequence (Q9Y5N1 whole entry): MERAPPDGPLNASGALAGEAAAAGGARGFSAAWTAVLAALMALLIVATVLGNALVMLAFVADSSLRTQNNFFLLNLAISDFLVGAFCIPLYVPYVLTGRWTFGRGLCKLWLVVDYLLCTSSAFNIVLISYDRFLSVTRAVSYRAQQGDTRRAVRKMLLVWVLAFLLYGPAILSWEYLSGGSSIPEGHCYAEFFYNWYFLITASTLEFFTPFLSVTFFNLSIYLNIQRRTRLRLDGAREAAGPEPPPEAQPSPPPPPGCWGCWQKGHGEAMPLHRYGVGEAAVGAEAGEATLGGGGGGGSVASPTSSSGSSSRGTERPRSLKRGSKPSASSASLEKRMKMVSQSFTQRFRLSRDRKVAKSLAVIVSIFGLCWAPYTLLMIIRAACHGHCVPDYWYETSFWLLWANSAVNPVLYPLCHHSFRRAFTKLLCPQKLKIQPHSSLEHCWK

| Structure (SMILES) | pKi |
| --- | --- |
| O=C(c1cccs1)N1CCCc2ccc(OCCCN3CCCCC3)cc21 [Example 6, [7-(3-Piperidin-1-yl-propoxy)-3,4-dihydro-2H-quinolin-1-yl]-thiophen-2-yl-methanone] | 7.90 |
| CN1CCC[C@H]1CN1CCc2cc(OCCCN3CCCCC3)ccc21 [Example 60, (S)-1-(1-Methyl-pyrrolidin-2-ylmethyl)-5-(3-piperidin-1-yl-propoxy)-2,3-dihydro-1H-indole] | 9.30 |
